Laboratory results reported in patent publication US8058344B2, “Glycodendrimers having biological activity” (Imperial Innovations Ltd, priority 2002, dated 2011).

Experiments:
[1] = system: Sup-T1, C8166, U937, U87-CD4-CCR5 and B16F10 cells; assay: Toxicity in cell lines, MTT assay, stated over all cell lines; type: cell-based, human; murine; conditions: concentrations up to 1,000 μg/ml
Protocol: (§1) The compounds synthesised were evaluated for their toxicity in the following cell lines:—the human T-cell line (Sup-T1), a human T-cell line transformed with HTLV-1 (C8166), the human monocytic cell line (U937), the brain cell line transfected with human CD4 and the human chemokine receptor CCR5 (U87-CD4-CCR5), and the murine melanoma cell line (B16P10).
(§2) Dendrimers, glucosamine, glucosamine 6-sulfate and dendrimer conjugates were incubated with each cell line. […] The conjugates or controls were incubated for 67 h with the cells at concentrations ranging from […]. An MTT assay was then used to determine cell viability and the results were expressed as a percentage of that for cells grown in the absence of any compound.

[2] = system: brain cell line transfected with human CD4 and the human chemokine receptor CCR5 (U87-CD4-CCR5); assay: Toxicity in cell lines, MTT assay; type: cell-based; conditions: 67 h, ± SEM (n = 16)
Protocol: as §1, §2

[3] = system: human monocytic cell line (U937); assay: Toxicity in cell lines, MTT assay; type: cell-based; conditions: U-937, 67 h, ± SEM (n = 16)
Protocol: as §1, §2

[4] = system: human T-cell line (Sup-T1); assay: Toxicity in cell lines, MTT assay; type: cell-based; conditions: 67 h, ± SEM (n = 16)
Protocol: as §1, §2

[5] = system: murine melanoma cell line (B16F10); assay: Toxicity in cell lines, MTT assay; type: cell-based; conditions: Mus musculus, B16-F10, 67 h, ± SEM (n = 16)
Protocol: as §1, §2

[6] = system: human T-cell line transformed with HTLV-1 (C8166); assay: Toxicity in cell lines, MTT assay; type: cell-based; conditions: 67 h, ± SEM (n = 16)
Protocol: as §1, §2

[7] = system: human umbilical vein endothelial cells; assay: Endothelial microtubule formation assay on Matrigel; type: cell-based; conditions: 100 μg/ml; 18 h; scale 0-4
Protocol: The endothelial microtubule formation assay was performed by isolating human umbilical vein endothelial cells from umbilical cords within 6 h of delivery by caesarean section. The embilical vein was cannulated and 0.1% collagenase in phosphate buffered saline was introduced and incubated for 20 minutes. The endothelial cells liberated by the collagenase were obtained by washing the umbilical vein with Medium 199. The cells were washed three times with Medium 199 and then cultured in tissue culture flasks coated with fibronectin. Growth media consisted of Medium 199 with 20% foetal bovine serum, 30 μg/ml endothelial cell growth supplement, 10 IU/ml heparin, 100 IU/ml penicillin, 100 μg/1 ml streptomycin and 2 mM L-glutamine. Human umbilical vein endothelial cells were passaged at confluence after treatment with trypsin-EDTA. All cells were used at passages to 6.
Aliquots of Matrigel were dispensed into 35 mm diameter tissue culture dishes on ice and then incubated at 37° C. for 10 min to allow the gel to set. […] At various time points from 8-24 hours, the plates were examined and scored using a published scheme from 0-4, where 0=all adherent cells remain single, and 4=all adherent cells involved in tubular structures. New vessel formation was quantified blind by three different observers at 18 h. […]
Endothelial microtubule formation by HUVECs on Matrigel (×40 magnification). A visual analogue scale was used to determine the extent of tube formation and scored on a scale from 0 (all cells remain single) to 4 (all cells involved in tubular structures) as previously described (Bauer J, Margolis M, Schreiner C, Edgell C-J, Azizkhan J, Lazarowski E, & Juliano R L. (1992) In vitro model of angiogenesis using a human endothelium derived permanent cell line: contributions of induced gene expression, G-proteins and integrins. J. Cellular Physiology 153: 437-449; Liaw, L & Schwartz S M. (1993) Microtubule disruption stimulates DNA synthesis in bovine endothelial cells and potentiates cellular response to basic fibroblast growth factor. […]

[8] = system: freshly isolated human PBMN cells and human MDM; assay: Toxicity against primary human cells in vitro, MTT assay; type: cell-based; conditions: up to the maximum concentration of 1,000 μg/ml
Protocol: The dendrimers and the dendrimer conjugates were incubated with freshly isolated, human peripheral blood mononuclear (PBMN) cells and with freshly isolated human monocyte-derived-macrophages QDM).
Human PBMN cells and human MDMs were separated from buffy coat residues within 24 h of collection by density gradient centrifugation. […] The monocytes were allowed to differentiate to MDMs by a further 3 days of adherence. The compounds were then added to PBMN cells or to MDMs (1×10^6 cells/ml) and incubated for 67 h. Cell viability was assessed using the MTT assay at 72 h.

SMILES	toxicity [1]	IC50 [2]	IC50 [3]	IC50 [4]	IC50 [5]	IC50 [6]	Tube formation score (n = 4) [7]	toxicity to PBMN cells or to MDMs [8]
N[C@H]1C(O)O[C@H](CO)[C@@H](O)[C@@H]1O (stereo partly shown) [glucosamine]	no toxicity	> 1000 µg/mL	> 1000 µg/mL	> 1000 µg/mL	> 1000 µg/mL	> 1000 µg/mL	4	–
N[C@H]1C(O)O[C@H](COS(=O)(=O)O)[C@@H](O)[C@@H]1OS(=O)(=O)O (stereo partly shown) [glucosamine 3,6-disulfate]	–	–	–	–	–	–	4	–
N[C@H]1C(O)O[C@H](COS(=O)(=O)O)[C@@H](O)[C@@H]1O (stereo partly shown) [glucosamine 6-sulfate]	no toxicity	> 1000 µg/mL	> 1000 µg/mL	> 1000 µg/mL	> 1000 µg/mL	> 1000 µg/mL	4	not toxic
